For this experiment, the system named is c-Myc. Nature of the experiment: c-Myc immunofluorescence assay. It counts as cell-based, human. To be noted: A549 cells, 24 hours treatment, anti-c-Myc immunofluorescence. In a few lines:
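High-content imaging (20×) of PFA-fixed A549 cells immunostained for c-Myc with DAPI nuclei, after 24 h compound treatment at increasing concentrations. Per-cell c-Myc signal in identified cell regions was plotted against dose and fitted by logistic regression to give EC50.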

These results are taken from patent publication US12404283B2, “c-MYC mRNA translation modulators and uses thereof in the treatment of cancer” (Anima Biotech Inc., priority 2022, dated 2025).

Molecules are shown by their SMILES.

On to `CCN1CCC(CNC(=O)c2ccc3c(c2)sc2nc(-c4ccc(C(=O)NC)cc4)cn23)C1` (centres unmarked) [compound 233, N-((1-ethylpyrrolidin-3-yl)methyl)-2-(4-(methylcarbamoyl)phenyl) benzo[d]imidazo[2,1-b]thiazole-7-carboxamide], for which the “Myc Efficacy (−LogEC50)” value is “− (− ≤3)”.

Consider `CNC(=O)c1ccc(-c2cn3c(n2)sc2cc(C(=O)NC(C)C4CCOCC4)ccc23)cc1` (centres unmarked) [compound 234, 2-(4-(methylcarbamoyl)phenyl)-N-(1-(tetrahydro-2H-pyran-4-yl)ethyl)benzo[d]imidazo [2,1-b]thiazole-7-carboxamide], for which the “Myc Efficacy (−LogEC50)” value was “+ (+ >3 and <5)”.

On to `CNC(=O)c1ccc(-c2cn3c(n2)sc2cc(C(=O)NCCCn4ccnc4)ccc23)cc1` [compound 235, N-(3-(1H-imidazol-1-yl)propyl)-2-(4-(methylcarbamoyl)phenyl) benzo[d]imidazo[2,1-b]thiazole-7-carboxamide], for which the “Myc Efficacy (−LogEC50)” value is “+ (+ >3 and <5)”. Take `CNC(=O)c1ccc(-c2cn3c(n2)sc2cc(C(=O)NC4CC(=O)N(C)C4)ccc23)cc1` (centres unmarked) [compound 236, N-(1-methyl-5-oxopyrrolidin-3-yl)-2-(4-(methylcarbamoyl)phenyl) benzo[d]imidazo[2,1-b]thiazole-7-carboxamide]: the “Myc Efficacy (−LogEC50)” value is on record as “− (− ≤3)”.

On to `CNC(=O)c1ccc(-c2cn3c(n2)sc2cc(C(=O)NC4(CO)CCOCC4)ccc23)cc1` [compound 237, N-(4-(hydroxymethyl)tetrahydro-2H-pyran-4-yl)-2-(4-(methylcarbamoyl)phenyl) benzo[d]imidazo[2,1-b]thiazole-7-carboxamide], for which the “Myc Efficacy (−LogEC50)” value is on record as “− (− ≤3)”. With `CNC(=O)c1ccc(-c2cn3c(n2)sc2cc(C(=O)N[C@H]4[C@H]5CN[C@@H]4C5)ccc23)cc1` [compound 238, N-((1R,4R,5S)-2-azabicyclo[2.1.1]hexan-5-(methylcarbamoyl)phenyl) benzo[d]imidazo[2,1-b]thiazole-7-carboxamide], the “Myc Efficacy (−LogEC50)” value is “− (− ≤3)”. In the case of `CNC(=O)c1ccc(-c2cn3c(n2)sc2cc(C(=O)NC4CC4OC)ccc23)cc1` (centres unmarked) [compound 240, N-(2-methoxycyclopropyl)-2-(4-(methylcarbamoyl)phenyl) benzo[d]imidazo[2,1-b] thiazole-7-carboxamide], the “Myc Efficacy (−LogEC50)” value is “+ (+ >3 and <5)”. `CNC(=O)c1ccc(-c2cn3c(n2)sc2cc(C(=O)NC4CC5(CNC5)C4)ccc23)cc1` [compound 241, 2-(4-(methylcarbamoyl)phenyl)-N-(2-azaspiro[3.3]heptan-6-yl)benzo[d]imidazo[2,1-b] thiazole-7-carboxamide]: the “Myc Efficacy (−LogEC50)” value is “+ (+ >3 and <5)”. For `CC[C@H](NC(=O)c1ccc2c(c1)sc1nc(-c3ccc(C(=O)NC)cc3)cn12)c1ccnn1C` [compound 242, (S)-N-(1-(1-methyl-1H-pyrazol-5-yl)propyl)-2-(4-(methylcarbamoyl)phenyl) benzo[d]imidazo[2,1-b] thiazole-7-carboxamide] the value was “+ (+ >3 and <5)”; for `CCc1nccn1CCNC(=O)c1ccc2c(c1)sc1nc(-c3ccc(C(=O)NC)cc3)cn12` [compound 243, N-(2-(2-ethyl-1H-imidazol-1-yl)ethyl)-2-(4-(methylcarbamoyl)phenyl) benzo[d]imidazo[2,1-b] thiazole-7-carboxamide], “+ (+ >3 and <5)”. In the case of `CNC(=O)c1ccc(-c2cn3c(n2)sc2cc(C(=O)NCC(C)(C)N4CCOCC4)ccc23)cc1` [compound 244, N-(2-methyl-2-morpholinopropyl)-2-(4-(methylcarbamoyl)phenyl) benzo[d]imidazo[2,1-b] thiazole-7-carboxamide], the “Myc Efficacy (−LogEC50)” value is “− (− ≤3)”. For the compound `CNC(=O)c1ccc(-c2cn3c(n2)sc2cc(C(=O)N[C@H]4C[C@@H](OC)C4)ccc23)cc1` [compound 245, N-((1s,3s)-3-methoxycyclobutyl)-2-(4-(methylcarbamoyl)phenyl) benzo[d]imidazo[2,1-b] thiazole-7-carboxamide], the “Myc Efficacy (−LogEC50)” value is given as “− (− ≤3)”. For `CNC(=O)c1ccc(-c2cn3c(n2)sc2cc(C(=O)N[C@H]4C[C@@H](NC)C4)ccc23)cc1` [compound 246, N-((1s,3s)-3-(methylamino)cyclobutyl)-2-(4-(methylcarbamoyl)phenyl) benzo[d]imidazo[2,1-b] thiazole-7-carboxamide] the value was “+ (+ >3 and <5)”; for `CNC(=O)c1ccc(-c2cn3c(n2)sc2cc(C(=O)N[C@H]4C[C@H](NC)C4)ccc23)cc1` [compound 247, N-((1r,3r)-3-(methylamino)cyclobutyl)-2-(4-(methylcarbamoyl)phenyl) benzo[d]imidazo[2,1-b] thiazole-7-carboxamide], “− (− ≤3)”. As to `Cc1cccc(-c2cn3c(n2)sc2cc(C(=O)NCCCN4CC5CC4CN5C)ccc23)c1` (centres unmarked) [compound 248, N-(3-(5-methyl-2,5-diazabicyclo[2.2.1]heptan-2-yl)propyl)-2-(m-tolyl)benzo[d]imidazo[2,1-b]thiazole-7-carboxamide], the “Myc Efficacy (−LogEC50)” value is “+ (+ >3 and <5)”. Consider `CNC(=O)c1ccc(-c2cn3c(n2)sc2cc(C(=O)NCCCN4CC5CC4CN5C)ccc23)cc1` (centres unmarked) [compound 249, N-(3-(5-methyl-2,5-diazabicyclo[2.2.1]heptan-2-yl)propyl)-2-(4-(methylcarbamoyl)phenyl) benzo[d]imidazo[2,1-b]thiazole-7-carboxamide], for which the “Myc Efficacy (−LogEC50)” value is “− (− ≤3)”. With `CNC(=O)c1ccc(-c2cn3c(n2)sc2cc(C(=O)N4CCN(CC(N)=O)CC4)ccc23)cc1` [compound 250, 4-(7-(4-(2-amino-2-oxoethyl)piperazine-1-carbonyl)benzo[d]imidazo [2,1-b]thiazol-2-yl)-N-methylbenzamide], the “Myc Efficacy (−LogEC50)” value was “+ (+ >3 and <5)”. As to `CNC(=O)c1ccc(-c2cn3c(n2)sc2cc(C(=O)NCC4(N)CC4)ccc23)cc1` [compound 251, N-((1-aminocyclopropyl)methyl)-2-(4-(methylcarbamoyl)phenyl) benzo[d]imidazo[2,1-b]thiazole-7-carboxamide], the “Myc Efficacy (−LogEC50)” value is “− (− ≤3)”. Take `CNC(=O)c1ccc(-c2cn3c(n2)sc2cc(C(=O)NCC4CC(=O)N(C)C4)ccc23)cc1` (centres unmarked) [compound 252, N-((1-methyl-5-oxopyrrolidin-3-yl)methyl)-2-(4-(methylcarbamoyl)phenyl) benzo[d]imidazo[2,1-b]thiazole-7-carboxamide]: the “Myc Efficacy (−LogEC50)” value was “+ (+ >3 and <5)”. For `CNC(=O)c1ccc(-c2cn3c(n2)sc2cc(C(=O)N[C@H]4[C@@H]5CNC[C@@H]54)ccc23)cc1` [compound 253, N-((1R,5S,6s)-3-azabicyclo[3.1.0]hexan-6-yl)-2-(4-(methylcarbamoyl)phenyl) benzo[d]imidazo[2,1-b]thiazole-7-carboxamide] the value was “+ (+ >3 and <5)”; for `CNC(=O)c1ccc(-c2cn3c(n2)sc2cc(C(=O)NCC4CCC(=O)N4C)ccc23)cc1` (centres unmarked) [compound 254, N-((1-methyl-5-oxopyrrolidin-2-yl)methyl) 2-(4-(methylcarbamoyl)phenyl) benzo[d]imidazo[2,1-b]thiazole-7-carboxamide], “+ (+ >3 and <5)”. For `CNC(=O)c1ccc(-c2cn3c(n2)sc2cc(C(=O)NCC(=O)NCC(F)(F)F)ccc23)cc1` [compound 255, 2-(4-(methylcarbamoyl)phenyl)-N-(2-oxo-2-((2,2,2-trifluoroethyl)amino)ethyl) benzo[d]imidazo[2,1-b]thiazole-7-carboxamide] the value was “− (− ≤3)”; for `CNC(=O)c1ccc(-c2cn3c(n2)sc2cc(C(=O)NC[C@H](O)c4ccccc4)ccc23)cc1` [compound 256, (R)-N-(2-hydroxy-2-phenylethyl)-2-(4-(methylcarbamoyl)phenyl) benzo[d]imidazo[2,1-b]thiazole-7-carboxamide], “− (− ≤3)”. As to `CNC(=O)c1ccc(-c2cn3c(n2)sc2cc(C(=O)NCCC4CCCN4C)ccc23)cc1` (centres unmarked) [compound 257, 2-(4-(methylcarbamoyl)phenyl)-N-(2-(1-methylpyrrolidin-2-yl)ethyl)benzo[d]imidazo [2,1-b]thiazole-7-carboxamide], the “Myc Efficacy (−LogEC50)” value is “++ (++ ≥5 and <6)”. For `CNC(=O)c1ccc(-c2cn3c(n2)sc2cc(C(=O)NC4CC(O)C4(C)C)ccc23)cc1` (centres unmarked) [compound 258, N-(3-hydroxy-2,2-dimethylcyclobutyl)-2-(4-(methylcarbamoyl)phenyl) benzo[d]imidazo[2,1-b]thiazole-7-carboxamide] the value was “+ (+ >3 and <5)”; for `CNC(=O)c1ccc(-c2cn3c(n2)sc2cc(C(=O)NCC4CC4(F)F)ccc23)cc1` (centres unmarked) [compound 259, N-((2,2-difluorocyclopropyl)methyl)-2-(4-(methylcarbamoyl)phenyl) benzo[d]imidazo[2,1-b]thiazole-7-carboxamide], “+ (+ >3 and <5)”; for `CNC(=O)c1ccc(-c2cn3c(n2)sc2cc(C(=O)NCCC4(O)CCCC4)ccc23)cc1` [compound 260, N-(2-(1-hydroxycyclopentyl)ethyl)-2-(4-(methylcarbamoyl)phenyl) benzo[d]imidazo[2,1-b]thiazole-7-carboxamide], “− (− ≤3)”. In the case of `CNC(=O)c1ccc(-c2cn3c(n2)sc2cc(C(=O)NCC4(C)CC4)ccc23)cc1` [compound 261, 2-(4-(methylcarbamoyl)phenyl) N-((1-methylcyclopropyl)methyl) benzo[d]imidazo[2,1-b]thiazole-7-carboxamide], the “Myc Efficacy (−LogEC50)” value is “− (− ≤3)”.

For `CNC(=O)c1ccc(-c2cn3c(n2)sc2cc(C(=O)NCCN4CCCCC4C)ccc23)cc1` (centres unmarked) [compound 262, 2-(4-(methylcarbamoyl)phenyl) N-(2-(2-methylpiperidin-1-yl)ethyl)benzo[d]imidazo [2,1-b]thiazole-7-carboxamide], the “Myc Efficacy (−LogEC50)” value was “+ (+ >3 and <5)”.
